From ChEMBL document CHEMBL2073806, “Effect of PCB-126 on intracellular accumulation and transepithelial transport of vinblastine in LLC-PK1 and its transformant cells expressing human P-glycoprotein” (J Vet Med Sci, 2004)

Target: ATP-dependent translocase ABCB1 (Homo sapiens, UniProt P08183)
Experiment: TP_TRANSPORTER: transepithelial transport (basal to apical) in LLC-MDR1 cells
Type: functional, cell-based
Conditions: pig

Chain of ATP-dependent translocase ABCB1 (P08183 whole entry): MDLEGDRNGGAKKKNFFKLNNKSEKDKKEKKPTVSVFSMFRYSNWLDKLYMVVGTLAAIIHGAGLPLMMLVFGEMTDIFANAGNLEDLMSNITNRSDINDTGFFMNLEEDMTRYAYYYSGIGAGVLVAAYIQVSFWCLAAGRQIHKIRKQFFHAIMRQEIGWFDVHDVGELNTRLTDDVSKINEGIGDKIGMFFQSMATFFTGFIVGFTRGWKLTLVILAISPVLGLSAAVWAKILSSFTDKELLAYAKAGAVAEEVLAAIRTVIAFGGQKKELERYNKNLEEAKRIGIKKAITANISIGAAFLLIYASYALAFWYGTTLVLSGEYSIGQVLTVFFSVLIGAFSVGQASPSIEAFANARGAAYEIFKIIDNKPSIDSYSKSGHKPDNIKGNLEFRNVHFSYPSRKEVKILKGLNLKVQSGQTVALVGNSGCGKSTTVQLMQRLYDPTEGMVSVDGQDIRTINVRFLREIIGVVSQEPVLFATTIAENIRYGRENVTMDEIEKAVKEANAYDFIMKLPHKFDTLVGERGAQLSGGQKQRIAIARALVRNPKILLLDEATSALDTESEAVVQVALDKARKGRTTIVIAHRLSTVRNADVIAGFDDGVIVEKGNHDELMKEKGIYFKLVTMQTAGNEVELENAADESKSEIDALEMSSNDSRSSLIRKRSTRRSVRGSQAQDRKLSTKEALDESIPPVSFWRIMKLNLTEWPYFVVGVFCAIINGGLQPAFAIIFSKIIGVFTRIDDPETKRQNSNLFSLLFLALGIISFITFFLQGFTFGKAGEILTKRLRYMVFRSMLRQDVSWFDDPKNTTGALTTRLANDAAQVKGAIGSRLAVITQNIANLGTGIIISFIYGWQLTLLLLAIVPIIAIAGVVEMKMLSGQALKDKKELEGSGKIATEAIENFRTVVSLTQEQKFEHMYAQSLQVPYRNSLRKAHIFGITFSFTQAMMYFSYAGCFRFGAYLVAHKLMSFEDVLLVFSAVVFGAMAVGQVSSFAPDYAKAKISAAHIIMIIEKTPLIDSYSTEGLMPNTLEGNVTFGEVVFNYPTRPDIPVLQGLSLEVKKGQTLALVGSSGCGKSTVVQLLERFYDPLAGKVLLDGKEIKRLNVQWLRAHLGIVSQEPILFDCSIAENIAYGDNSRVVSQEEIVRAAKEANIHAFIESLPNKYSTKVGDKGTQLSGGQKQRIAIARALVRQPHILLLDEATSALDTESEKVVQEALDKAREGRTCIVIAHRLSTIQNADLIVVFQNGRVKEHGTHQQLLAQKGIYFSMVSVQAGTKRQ

Compound: Clc1ccc(-c2cc(Cl)c(Cl)c(Cl)c2)cc1Cl [POLYCHLORINATED BIPHENYL 126]
- Activity: substrate [+]
